Reference: patent publication US20250100962A1 (CITY OF HOPE, priority 2023, published 2025)

Key:
Wnt signaling activity = test: TOPFlash luciferase reporter assay (Example 3); format: cell-based; details: for TOPFlash reporter activity, Wnt-stimulated: Wnt3a media
Description: TOPFlash luciferase reporter assay. M50 Super 8×TOPFlash luciferase reporter containing Wnt-responsive TCF bindings sites was a gift from Randall Moon (Veeman, Slusarski, Kaykas et al., 2003) obtained from Addgene (Addgene plasmid #12456). Cells were seeded and grown overnight, and cell transfection was performed at 90% confluency. 24 hours following transfection, cells were treated using 10% Wnt3a conditioned media obtained from L Wnt-3A cell line (ATCC CRL-2647) to induce luciferase activity. Luciferase activity was assayed using Dual-Luciferase Reporter Assay Kit (Promega) in 96-well black plates. TOPFlash luciferase reporter luminescence was measured on microplate reader (TECAN infinite M200pro) and normalized to control FOPFlash activity, as previously described (Guo et al., 2012). The mean and standard deviation values were calculated for each well and graphed.

C3H10T1/2 cells = test: Adipogenic differentiation of C3H10T1/2 mesenchymal precursors; format: cell-based; details: for adipogenic factors C/EBPα and PPARγ / mature adipocyte marker expression (FASN): 1 μM, immunoblot; for adipogenic factors C/EBPα and PPARγ: day 7 differentiated; for mature adipocyte formation / lipid accumulation: day 8, oil-red-O and Bodipy
Description: Cell culture and adipogenic differentiation. 3T3-L1 and C3H10T1/2 cell lines were obtained from ATCC, and maintained in DMEM with 10% fetal bovine serum supplemented with 1% Penicillin-Streptomycin-Glutamine, as previously described (Nam, Guo, Chatterjee et al., 2015; Liu, Xiong, Nam et al., 2020). 0.25% Trypsin was used for digestion and passaging of these cell lines. For adipogenic differentiation induction media (1.6 μM insulin, 1 μM dexamethasone, 0.5 mM IBMX, 0.5 uM Rosiglitazone) was used for 3 days followed by maintenance medium with insulin for 3 days for 3T3-L1 and 5 days for C3H10T1/2 cells, as previously described (Liu et al., 2020).
Oil-red-O and Bodipy staining. These stainings for neutral lipids during adipogenic differentiation were performed as previously described (Nam et al., 2015). Briefly, for oil-red-O staining, cells were fixed using 10% formalin and incubated using 0.5% oil-red-O solution for 1 hour. Bodipy 493/503 was used at 1 mg/L together with DAPI for 15 minutes, following 4% paraformaldehyde fixation and permeabilization with 0.2% triton-X100.
Immunoblot analysis. Total protein was extracted using lysis buffer containing 3% NaCl, 5% Tris-HCl, 10% Glycerol, 0.5% Triton X-10 in MilliQ water with protease inhibitor cocktail. 20-40 μg of total protein was resolved on 10% SDS-PAGE gels followed by immunoblotting on PVDF membranes (Bio-rad). Membranes were developed by chemiluminescence (SuperSignal West Pico, Pierce Biotechnology) and signals were obtained via a chemiluminescence imager (Amersham Imager 680, GE Biosciences).

mdx mice = test: Direct intramuscular injection into Tibialis Anterior muscle of mdx mice; format: in vivo, mouse; details: for Evans Blue Dye (EBD) positive area (muscle damage): 150 ul of 2 uM daily for 3 days; for amount of satellite cells / satellite cell proliferation (EdU+/Pax7+ within Pax7+ pool): 150 μl of 2 μM daily for three days; for transcript levels of clock regulators and myogenic factors / expression of pro-inflammatory cytokines TNF-α, IL-6 and iNOS: RT-qPCR; for transcript levels of clock regulators and myogenic factors: mdx muscle; for expression of pro-inflammatory cytokines TNF-α, IL-6 and iNOS: mdx TA muscle, 3 daily doses; for reduction of creatine kinase (CK) levels, ex vivo TA explants: media of TA explant cultured 24 hours; for myofiber size distribution (cross section area) / Pax7 and CyclinD1 / new myofiber formation (eMyHC staining) / protein levels of clock regulators Bmal1, CLOCK, Rev-erbα / protein levels of myogenic factors: three daily doses; for Pax7 and CyclinD1 / new myofiber formation (eMyHC staining) / protein levels of clock regulators Bmal1, CLOCK, Rev-erbα / protein levels of myogenic factors: 50 μl of 2 μM
Excerpt: FIGS. 17A-17C. In vivo effect of chlorhexidine on inducing regenerative repair of mdx dystrophic muscle. Based on the effects of CHX on promoting myogenic differentiation, we postulated that it may enhance myogenesis in vivo to promote regenerative repair in dystrophic muscle. […] FIG. 17A: Initial preliminary data was obtained from mice injected with one or two injections (one day apart) of CHX dissolved in DMSO. […] FIG. 17B: Next, we further tested the in vivo effect of CHX by three doses using PBS solution to avoid potential membrane damage by DMSO. […] FIG. 17C: Lastly, we examined the effect of triple CHX injection on clock and myogenic factor proteins in individual and individual mdx muscle. […] Variability observed between individual mice could be due to the in vivo injection.
FIG. 18. In vivo effect of chlorhexidine on inducing nascent myofiber regeneration of mdx dystrophic muscle. To directly examine effect of CHX in vivo injection on dystrophic muscle repair, we performed immunofluorescence staining of embryonic myosin heavy chain (eMyHC) to identify nascent regenerated myofiber using frozen TA cross sections from mdx mice following triple injections. Laminin staining was used to delineate basal lamina of myofiber.
FIGS. 43A-43D. CHX and CM002 promote regenerative myogenesis in dystrophic mdx mice. Based on the effect of CHX and CM002 on promoting regenerative myogenesis, we next tested whether they exert protective effects in dystrophic disease conditions via local intramuscular delivery in the mdx mice, an established model for muscular dystrophy.
FIGS. 44A-44D. CM002 and CHX stimulate satellite cell proliferative expansion and myogenic gene induction in mdx mice. As Pax7 and CyclinD1 levels were increased by CM002 and CHX in mdx TA, we directly examined the proliferation of satellite cells via EdU labeling with co-staining for Pax7 to identify satellite cells.
FIGS. 45A-45D. CM002 and CHX protects against dystrophic muscle damage in mdx mice. Given that local delivery of CHX and CM002 stimulated new myofiber formation to promote regenerative repair, we next examined whether these effects lead to protection against dystrophic injury. […] Most importantly, using ex vivo TA explants, we determined creatine kinase secretion from treated TA muscles as a direct indicator to assess muscle injury.
FIGS. 46A-46D. CHX and CM002 ameliorate inflammatory milieu of muscular dystrophy. Chronic inflammation in dystrophic muscle, due to the persistent muscle damage with sustained degeneration and regeneration cycles, is a significant component of the pathogenic characteristics of muscular dystrophy contributing to muscle wasting. We thus determined potential ameliorative effects of CHX and CM002 on muscle inflammation in the mdx mice. […] To further test whether the reduction of inflammation in muscle could be due to direct modulation of macrophage pro-inflammatory activities, we determined CHX and CM002 effects in primary bone marrow-derived macrophages.

| SMILES | TOPFlash reporter activity, basal condition (Wnt signaling activity) | TOPFlash reporter activity, Wnt-stimulated (Wnt signaling activity) | adipogenic factors C/EBPα and PPARγ (C3H10T1/2 cells) | mature adipocyte marker expression (FASN) (C3H10T1/2 cells) | mature adipocyte formation / lipid accumulation (C3H10T1/2 cells) | Evans Blue Dye (EBD) positive area (muscle damage) (mdx mice) | amount of satellite cells (mdx mice) | satellite cell proliferation (EdU+/Pax7+ within Pax7+ pool) (mdx mice) | transcript levels of clock regulators and myogenic factors (mdx mice) | expression of pro-inflammatory cytokines TNF-α, IL-6 and iNOS (mdx mice) | reduction of creatine kinase (CK) levels, ex vivo TA explants (mdx mice) | myofiber size distribution (cross section area) (mdx mice) | Pax7 and CyclinD1 (mdx mice) | new myofiber formation (eMyHC staining) (mdx mice) | protein levels of clock regulators Bmal1, CLOCK, Rev-erbα (mdx mice) | protein levels of myogenic factors (mdx mice) | also measured |
| --- | --- | --- | --- | --- | --- | --- | --- | --- | --- | --- | --- | --- | --- | --- | --- | --- | --- |
| [H]/N=C(\N/C(=N/[H])NCCCCCCNC(=N)NC(=N)Nc1ccc(Cl)cc1)Nc1ccc(Cl)cc1 [CHX, chlorhexidine] | could induce Wnt signaling activity | could induce Wnt signaling activity | significantly impaired levels of adipogenic factors | attenuated expression of fatty acid synthase | attenuated mature adipocyte formation | significantly reduced the areas stained positive for EBD | not significantly altered | sufficient to stimulate satellite cells proliferative expansion in dystrophic muscle to a similar degree | corresponding increase of their transcript levels | consistent reduction of expression of the pro-inflammatory cytokines examined | approximately 50% | striking left shift toward smaller myofibers | also induced | increased new myofiber formation | significantly elevated | elevated protein levels of myogenic factors | adipogenic maturation, early stage (C3H10T1/2 cells; 5 days after adipogenic induction, oil-red-O): dose-dependent inhibition of adipogenic maturation; protein expression of clock regulators (CLOCK, Rev-erbα) and myogenic factors (Myf5, Myogenin) (mdx mice; one or two injections, 50 μl of 2 μM in DMSO): stronger inductions by two doses; Pax7 protein (mdx mice; three doses in PBS, pooled samples): strongly induced; myogenic factors and Bmal1 protein in individual mdx muscle (mdx mice; triple injection, n=3): two of three mice injected with CHX demonstrated marked inductions of myogenic factors together with up-regulation of Bmal1 protein; eMyHC staining (nascent regenerated myofiber) (mdx mice; triple injections, vs PBS): robust eMyHC indicative of newly-regenerated myofibers |
| CCCCCC/C=N/C(=N)NC(=N)Nc1ccc(Cl)cc1 [CM002] | sufficient to stimulate TOPFlash reporter activity to a similar degree as CHX | at lower concentrations at 0.1 and 0.2 μM were sufficient to induce TOPFlash reporter activity comparable to that of CHX at 0.5 μM | strong inhibition of adipogenic factors C/EBPα and PPARγ | substantially lower | markedly suppressed their differentiation in a dose-dependent manner | significantly reduced the areas stained positive for EBD | not significantly altered | sufficient to stimulate satellite cells proliferative expansion in dystrophic muscle to a similar degree | corresponding increase of their transcript levels | consistent reduction of expression of the pro-inflammatory cytokines examined | ~35% | striking left shift toward smaller myofibers | also induced | increased new myofiber formation | significantly elevated with stronger effect by CM002 | elevated protein levels of myogenic factors |  |
